Tested on: antenna of a male adult of peach fruit moth
Assay: GC-EAD (electroantennographic detection) of the extract of peach fruit moth
Design: species or system Carposina sasakii
Conditions: GC-EAD of pheromone gland extract; male adult 3 to 5 days after eclosion
Description: An EAD chart of the extract of peach fruit moth (Carposina sasakii) is shown in FIG. 1A and a GC chart of the extract is shown in FIG. 1B. […] In FIG. 1B, the peaks for components (5) and (6) were at the detection limit or less so that they were not detected.
In this time zone, the pheromone gland was excised from a virgin female adult (2 to 3 days old) under a microscope and immersed in n-hexane for 30 minutes. Then the insect body tissues were removed from the extraction liquid by filtration to produce an extract of peach fruit moth.
A GC-EAD (Gas Chromatography-Electroantennographic Detection) chart of the above extract of peach fruit moth is shown in FIG. 1.
Structural analyses of dimethyl disulfide (DMDS) adducts was conducted for each of the unsaturated bond sites of the monoene components. Finally, it was found in comparison with the retention times and mass spectra of the corresponding synthesized products that the components (1) to (6) were docosane, tricosane, (Z)-7-tricosene, (Z)-5-pentacosene, (Z)-12-nonadecen-9-one and (Z)-7-heneicosen-11-one, respectively, and the mixing weight ratio thereof was 6:341:432:36:2:8 with respect to 100 of (Z)-13-eicosen-10-one. FIGS. 2 to 7 show the mass spectra of the components (1) to (6) in the extract of peach fruit moth, while FIGS. 8 to 13 show the mass spectra of the commercial products and synthesized compounds.

`CCCCCC/C=C\CCC(=O)CCCCCCCCC` [(Z)-13-eicosen-10-one] was tested, and the “potential response of the antenna of a male adult (EAD)” value was “showed a potential response”.

Reference: patent US20170079267A1, “SEX PHEROMONE COMPOSITION OF PEACH FRUIT MOTH AND ATTRACTANT COMPRISING THE SAME” (SHIN-ETSU CHEMICAL CO., LTD., priority 2011, published 2017)
